Measurements: patent US20200155500A1, “COMPOSITION FOR PREVENTING AND TREATING PANCREATITIS CONTAINING NAPHTHOQUINONE-BASED COMPOUND AS ACTIVE INGREDIENT” (NADIANBIO Ltd., priority 2015, published 2020)

Columns and labels:
IL-1β [1] = experiment: Serum IL-1β level by ELISA, caerulein mediated pancreatitis model; assay type: in vivo; conditions: C57BL/6 mice, oral 10, 20, 40 mg/kg one day before caerulein, dose-dependently, vs caerulein treated group
Procedure: (§1) In this invention, C57BL/6 mice at the body weight of about 22±2 g were used. All the mice were raised in a sterile animal laboratory with constant temperature (22˜26[…]) and humidity (55˜60%). The mice were adapted for 1 week while feeding with normal solid feed (Samtaco Korea) and water. All the experiments were performed according to the guide for the care and use of laboratory animals set by Wonkwang University.
(§2) Serum was obtained from the animal model and then the level of serum IL-1β was measured by using mouse IL-1β ELISA kit (BD, USA). First, nasal lavage fluid or diluted serum was loaded in the 96-well plate coated with the mouse IL-1β specific antibody, followed by reaction at room temperature for 2 hours. After washing the plate, biotin conjugate was added thereto, followed by reaction at room temperature for 1 hour. After washing the plate, streptavidin-HRP working solution was added thereto, followed by reaction. After washing the plate again, stabilized chromogen was added thereto, followed by reaction. Then, OD450 was measured. In addition, the expression of IL-1β in pancreas was confirmed by real-time PCR in each pancreas tissue. To extract total RNA, 1 mL of TRIzol (Invitrogen, USA) was added to 20 mg of each pancreas tissue, which stood on ice for 5 minutes to lyse cells. […] The RNA was quantified by using Nanodrop 2000 (Thermo, USA). […]

[2] = system: caerulein mediated pancreatitis; experiment: Morphological changes of pancreas tissue (hematoxylin-eosin, histological scores), preventive treatment; assay type: in vivo; conditions: C57/BL6 mouse, oral 10, 20, 40 mg/kg one day before caerulein; dose-dependently
Procedure: as §1
Pancreas tissues were separated, fixed in 10% formalin for 24 hours at 4[…], demineralized with 10% ethylenediaminetetra-acetic acid (EDTA, pH 7.4) solution, washed, dehydrated, embedded in paraffin and cut into 5 μm sections. The sections were stained with hematoxylin-eosin, followed by observation under optical microscope.

[3] = system: lung damage induced by caerulein; experiment: Lung damage induced by pancreatitis, C57/BL6 mouse; assay type: in vivo; conditions: cotreatment 10, 20, 40 mg/kg
lipase [4] = experiment: Serum lipase activity, caerulein mediated pancreatitis model; assay type: in vivo; conditions: C57BL/6 mice, oral 10, 20, 40 mg/kg one day before caerulein; vs caerulein treated group
Procedure: as §1
(§3) Serum was obtained and then OD595 and OD412 were measured by using amylase activity analysis kit (DAMY-100; BioAssay Systems, USA) and lipase activity analysis kit (DLPS-100; BioAssay Systems, USA) to investigate the activities of amylase and lipase.

IL-1β [5] = experiment: Expression of IL-1β in pancreas by real-time PCR, caerulein mediated pancreatitis model; assay type: in vivo; conditions: C57BL/6 mice, oral treatment one day before caerulein, vs caerulein treated group
Procedure: as §1, §2

[6] = system: caerulein mediated pancreatitis; experiment: Ratio of pancreas weight to body weight, caerulein mediated pancreatitis model; assay type: in vivo; conditions: C57BL/6 mice, oral 10, 20, 40 mg/kg one day before caerulein (50 μg/kg i.p. x6); vs caerulein treated group
Procedure: as §1, with “University. […] When pancreatitis is developed, the weight of pancreas is known to be increased because of edema. Thus, blood was extracted from all the animals finished with the experiment and then the ratio of the pancreas weight to the body weight was measured. […] After blood was extracted, the pancreas was cut out and the weight of the pancreas to the body weight was measured by the pancreas weight (wet pancreas weight)/body weight (wet body weight) formula of Grady method.” for “University.”

amylase [7] = experiment: Serum amylase activity, caerulein mediated pancreatitis model; assay type: in vivo; conditions: C57BL/6 mice, oral 10, 20, 40 mg/kg one day before caerulein; vs caerulein treated group
Procedure: as §1, §3

MCP-1 = experiment: Expression of MCP-1 in pancreas by RT-PCR, caerulein mediated pancreatitis model; assay type: in vivo; conditions: C57BL/6 mice, oral 10, 20, 40 mg/kg one day before caerulein, vs caerulein treated group
Procedure: as §1

NQO-1 knock out mouse [8] = experiment: Ratio of pancreas weight to body weight in NQO-1 knock out mouse; assay type: in vivo; conditions: NQO1 knock out mouse; caerulein treated group vs β-lapachone cotreated group
Procedure: (§4) To confirm whether or not the protective effect of β-lapachone on pancreatitis was via the activation pathway of NQO-1 enzyme, the present inventors investigated the weight of pancreas, the activities of serum amylase and lipase, and the concentration of serum IL-1β in NQO-1 knock out mouse.
(§5) Then, the ratio of the pancreas weight to the body weight was calculated by the same manner as described in Experimental Example 2. The activities of serum amylase and lipase were measured using a kit by the same manner as described in Experimental Example 3.

IL-1β [9] = experiment: Serum IL-1β concentration in NQO-1 knock out mouse; assay type: in vivo; conditions: NQO1 knock out mouse; caerulein treated group vs β-lapachone cotreated group
Procedure: as §4, §5

amylase [10] = experiment: Serum amylase activity in NQO-1 knock out mouse; assay type: in vivo; conditions: NQO1 knock out mouse; caerulein treated group vs β-lapachone cotreated group
Procedure: as §4, §5

NQO-1 knock out mouse [11] = experiment: Lung damage induced by pancreatitis, NQO-1 knock out mouse; assay type: in vivo; conditions: cotreatment with β-lapachone
NQO-1 knock out mouse [12] = experiment: Morphological changes of pancreas tissue in NQO1 knock out mouse; assay type: in vivo; conditions: 40 mg/kg plus caerulein, vs caerulein treated group
Excerpt: β-lapachone is known as a co-substrate of NQO-1 (NAD(P)H: quinone oxidoreductase-1). So, in order to confirm whether or not the pancreas protection effect of β-lapachone was via the activation pathway of NQO-1, the morphological changes of pancreas were investigated in NQO-1 knock out mouse.
Then, the pancreas tissues were stained with hematoxylin-eosin by the same manner as described in Experimental Example 5, followed by observation under optical microscope.

[13] = system: pancreatitis induced by caerulein; experiment: Therapeutic effect on caerulein-induced pancreatitis, pancreas tissue morphology; assay type: in vivo, C57BL/6 mice; conditions: intravenous injection six hours after the final caerulein administration; 10, 20, 40 mg/kg
Procedure: as §1

lipase [14] = experiment: Serum lipase activity in NQO-1 knock out mouse; assay type: in vivo; conditions: NQO1 knock out mouse; caerulein treated group vs β-lapachone cotreated group
Procedure: as §4, §5

Row | Structure (SMILES) | serum IL-1β level (IL-1β [1]) | edema, inflammation, and cell necrosis of pancreas tissues induced by caerulein (histological scores) [2] | lung damage induced by caerulein [3] | lipase activity in serum (lipase [4]) | expression of IL-1β in pancreas (IL-1β [5]) | ratio of pancreas weight/body weight [6] | amylase activity in serum (amylase [7]) | expression of MCP-1 in pancreas (MCP-1) | ratio of pancreas weight/body weight (NQO-1 knock out mouse [8]) | concentration of serum IL-1β (IL-1β [9]) | activity of serum amylase (amylase [10]) | lung damage induced by caerulein (NQO-1 knock out mouse [11]) | edema, inflammation, and cell necrosis of pancreas tissues (NQO-1 knock out mouse [12]) | edema, inflammation, and cell necrosis of pancreas tissues induced by caerulein (histological scores) [13] | activity of serum lipase (lipase [14])
1 | CC1OC2=C(C(=O)C(=O)c3ccccc32)C1(C)C (centres unmarked) [dunnione] | significantly reduced | all inhibited | significantly inhibited | significantly reduced dose-dependently | significantly reduced | significantly reduced dose-dependently | significantly reduced dose-dependently | reduced dose-dependently | – | – | – | – | – | – | –
2 | CC1(C)CCC2=C(O1)c1ccccc1C(=O)C2=O [β-lapachone] | significantly reduced | all inhibited | inhibited | significantly reduced dose-dependently | significantly reduced | significantly reduced dose-dependently | significantly reduced dose-dependently | reduced dose-dependently | not significantly different | not much different | not significantly different | not inhibited | not reduced | all reduced | not significantly different
